Assay results as given in the supplement of paper PMC10307832.

Columns and labels:
Assay in all cases: relative viability (nuclei count vs DMSO), 5 days (fraction); higher = more cells survive
[1] = compound: Cn1cc(-c2cnn3c(N)c(Br)c([C@@H]4CCCNC4)nc23)cn1 + CC(C)C[C@H](NC(=O)[C@H](Cc1ccccc1)NC(=O)c1cnccn1)B(O)O [Bortezomib] (partner 0.002 µM)
Summary of the method: (§1)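 Relative viability equals treated-well nuclei counts divided by vehicle-well nuclei counts. Counts came from 4× images of lung cancer cell lines grown in 1536-well plates for 5 days after pin-tool dosing on the day after seeding. Dosing used one drug alone or a fixed anchor-drug dose plus five library-drug doses (not always all listed) in √10 steps, and values are medians of duplicate plates.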

[2] = compound: Cn1cc(-c2cnn3c(N)c(Br)c([C@@H]4CCCNC4)nc23)cn1 + Nc1nc2[nH]cc(CCc3ccc(C(=O)N[C@@H](CCC(=O)O)C(=O)O)cc3)c2c(=O)[nH]1 [Pemetrexed] (partner 0.2 µM)
Summary of the method: as §1

[3] = compound: Cn1cc(-c2cnn3c(N)c(Br)c([C@@H]4CCCNC4)nc23)cn1 + O=C(c1cc(Cc2n[nH]c(=O)c3ccccc23)ccc1F)N1CCN(C(=O)C2CC2)CC1 [Olaparib] (partner 8 µM)
Summary of the method: as §1

[4] = compound: Cn1cc(-c2cnn3c(N)c(Br)c([C@@H]4CCCNC4)nc23)cn1 + Cc1nc(NC(=O)N2CCC[C@H]2C(N)=O)sc1-c1ccnc(C(C)(C)C(F)(F)F)c1 [Alpelisib] (partner 2 µM)
Summary of the method: as §1

| Cell Line | relative viability ([1]; first compound 0.05 µM) | relative viability ([1]; first compound 0.1581 µM) | relative viability ([1]; first compound 0.5 µM) | relative viability ([1]; first compound 1.581 µM) | relative viability ([1]; first compound 5 µM) | relative viability ([2]; first compound 0.05 µM) | relative viability ([2]; first compound 0.1581 µM) | relative viability ([2]; first compound 0.5 µM) | relative viability ([2]; first compound 1.581 µM) | relative viability ([2]; first compound 5 µM) | relative viability ([3]; first compound 0.05 µM) | relative viability ([3]; first compound 0.1581 µM) | relative viability ([3]; first compound 0.5 µM) | relative viability ([3]; first compound 1.581 µM) | relative viability ([3]; first compound 5 µM) | relative viability ([4]; first compound 0.05 µM) | relative viability ([4]; first compound 0.1581 µM) | relative viability ([4]; first compound 0.5 µM) | relative viability ([4]; first compound 1.581 µM) | relative viability ([4]; first compound 5 µM) |
| --- | --- | --- | --- | --- | --- | --- | --- | --- | --- | --- | --- | --- | --- | --- | --- | --- | --- | --- | --- | --- |
| NCI-H2023 | 1.04 | 0.923 | 0.733 | 0.235 | 0.147 | 0.175 | 0.124 | 0.115 | 0.118 | 0.112 | 0.473 | 0.336 | 0.253 | 0.253 | 0.139 | 0.494 | 0.497 | 0.48 | 0.3 | 0.193 |
| NCI-H2085 | 1.12 | 1.13 | 1.08 | 0.813 | 0.909 | 0.864 | 0.925 | 0.921 | 0.789 | 0.7 | 0.813 | 0.849 | 0.776 | 0.762 | 0.752 | 1.01 | 1.04 | 0.955 | 0.868 | 0.769 |
| NCI-H2087 | 0.893 | 0.876 | 0.872 | 0.622 | 0.911 | 0.671 | 0.637 | 0.615 | 0.582 | 0.647 | 0.766 | 0.735 | 0.623 | 0.624 | 0.676 | 1.29 | 1.17 | 1.21 | 0.98 | 0.938 |
| NCI-H2126 | 1.1 | 1.22 | 1.15 | 1.02 | 1.14 | 0.662 | 0.756 | 0.753 | 0.566 | 0.454 | 0.965 | 0.923 | 0.887 | 0.792 | 0.923 | 0.824 | 0.788 | 0.768 | 0.729 | 0.757 |
| NCI-H2228 | 1.1 | 1.1 | 0.943 | 0.705 | 0.521 | 0.315 | 0.33 | 0.311 | 0.22 | 0.155 | 0.546 | 0.688 | 0.675 | 0.508 | 0.359 | 0.794 | 1.15 | 0.87 | 0.541 | 0.372 |
| NCI-H2347 | 0.839 | 1.01 | 0.747 | 0.727 | 0.869 | 0.408 | 0.394 | 0.418 | 0.502 | 0.338 | 0.626 | 0.695 | 0.53 | 0.629 | 0.611 | 0.974 | 1.19 | 0.959 | 0.957 | 0.812 |
| NCI-H2405 | 0.961 | 1.06 | 1.01 | 0.95 | 0.691 | 0.968 | 1.05 | 1.05 | 0.991 | 0.709 | 0.875 | 0.954 | 0.901 | 0.857 | 0.659 | 0.816 | 0.753 | 0.814 | 0.777 | 0.542 |
| NCI-H3122 | 1.12 | 1.02 | 1.04 | 1.11 | 1.05 | 0.196 | 0.169 | 0.158 | 0.147 | 0.164 | 0.647 | 0.674 | 0.598 | 0.635 | 0.563 | 0.79 | 0.856 | 0.806 | 0.717 | 0.869 |
| PC-3 [JPC-3] | 0.818 | 0.834 | 0.76 | 0.755 | 0.907 | 0.698 | 1.03 | – | 1.09 | 0.82 | 1.14 | 1.02 | – | 1.09 | 1.15 | 1.12 | 1.13 | 1.13 | 0.965 | 1.12 |
| PC-14 | 0.936 | 0.971 | 0.83 | 0.549 | 0.355 | 0.13 | 0.1 | 0.102 | 0.089 | 0.0648 | 0.211 | 0.213 | 0.222 | 0.19 | 0.125 | 0.939 | 1.14 | 0.883 | 0.858 | 0.485 |
| RERF-LC-KJ | 1.12 | 1.17 | 1.02 | 0.96 | 0.953 | 0.459 | 0.476 | 0.477 | 0.422 | 0.478 | 1.05 | 0.996 | 0.869 | 0.762 | 0.662 | 0.849 | 0.846 | 0.892 | 0.708 | 0.717 |
| SK-LU-1 | 1.08 | – | 0.866 | 0.486 | 0.202 | 0.955 | 0.612 | 0.536 | 0.321 | 0.227 | 0.515 | 0.308 | 0.31 | 0.246 | 0.226 | 1.19 | – | 0.463 | 0.339 | 0.248 |
| SW 1573 | 1.17 | 1.29 | 1.08 | 0.906 | 1.02 | 1 | 0.759 | 0.832 | 0.526 | 0.824 | 0.476 | 0.562 | 0.44 | 0.401 | 0.457 | 0.779 | 1.07 | 0.801 | 0.78 | 0.616 |
| UMC-11 | 0.72 | 0.961 | 0.558 | 0.476 | 0.437 | 0.841 | 0.753 | 0.626 | 0.657 | 0.429 | 0.429 | 0.399 | 0.41 | 0.381 | 0.34 | 1.04 | 1.07 | 0.675 | 0.621 | 0.579 |
